Legend:
db/db mouse = experiment: Glucose tolerance test in the db/db mouse; type: in vivo; settings: 30 mpk, treated 9 days, oral glucose 1 g/kg after fasting
Method: The aim of this study is to evaluate in vivo the antidiabetic character of the compounds according to the invention, in the db/db mouse (Berger J et al., 1996). The antidiabetic effect of the compounds is evaluated by measuring glycemia and insulinemia after 8 days of treatment. In diabetic animals (as in humans), administration of glucose leads to a significant increase in the plasma level of insulin. This induced hyperinsulinemia causes a lowering of glycemia, which is delayed in insulin-resistant animals, for example in the db/db mouse.
After 9 days, the animals were deprived of food for 16 hours before carrying out the glucose tolerance test. The latter consists of a single administration of glucose after fasting (administered orally at a dose of 1 g/kg). Blood samples were then taken from time to time to study the evolution of plasma glycemia.
Glucose was determined by enzyme assays (bioMérieux-Lyons-France) according to the suppliers recommendations.

[1] = tested on: PPARδ target genes (PDK4, CPT1b, UCP2) in murine myocytes; experiment: Expression of PPARδ target genes in murine myocytes (differentiated C2C12 cells); type: cell-based; settings: 24 hours, Cpd 7 at 0.1, 1, 10 μM, Cpd 24 at 0.2, 2, 20 μM, normalized to 36B4
Method: The PPARδ agonist properties previously measured in vitro were evaluated by measuring, in murine myocytes, the expression of genes involved in lipid and carbohydrate metabolism and energy expenditure (PDK4, CPT1b, UCP2). Regulation of expression of these genes, in this cell type, is a direct consequence of the activation of PPARδ by the compounds according to the invention. The greater the increase in expression of the genes, the more the compound according to the invention is a stimulator of metabolism in muscle cells (Dressel U et al., 2003).
The C2C12 murine cells (from ECACC) are cultivated in DMEM medium (Gibco; 41965-039) supplemented with 1% L-glutamine (Gibco; 25030), 1% penicillin/streptomycin (VWR; BWSTL0022/100) and 10% decomplemented fetal calf serum (FCS. Gibco; 10270-106).
The cells are seeded in 24-well plates at a density of 50×10^3 cells/well. At confluence, the medium is replaced with a differentiation medium (base culture medium supplemented with 2% of horse serum (Gibco; 26050-088)) then culture is continued at 37° C. and 5% CO2 for 7 days in order to permit differentiation of the myoblasts into myocytes.
After 6 days of differentiation, the cells are put in a deprivation medium (base culture medium without serum) for 6 hours. The cells are then treated with the compounds according to the invention in the deprivation medium. The compounds according to the invention were tested at doses of 0.1, 1, 10 μM and 0.2, 2 and 20 μM respectively. The compounds according to the invention were dissolved in dimethylsulfoxide (DMSO, Sigma; D5879). The cells are treated for 24 hours at 37° C., 5% CO2. The effects for the compounds tested were compared with the effect of DMSO alone at a concentration of 0.1%.
These procedures were performed on the cells essentially as described in Example 10 (point c) of the Protocols.
The following primer pairs specific to the genes investigated were used: […]

**Q.** For COc1nc(-c2ccc(C(F)(F)F)cc2)ccc1COc1ccc(OCC(=O)O)cc1 [Cpd 24, 2-(4-((2-methoxy-6-(4-(trifluoromethyl)phenyl)pyridin-3-yl)methoxy)-phenoxy)ethanoic acid], which “glucose tolerance test (insulin resistance)” value (db/db mouse) is on record?
**A.** marked decrease in insulin resistance

**Q.** And the “expression of CPT1b” value [1]?
**A.** significant effects of stimulating expression

**Q.** And the “expression of PDK4” value [1]?
**A.** significant effects of stimulating expression

**Q.** What about the “expression of UCP2” value [1] of the same compound?
**A.** significant effects of stimulating expression
